Measured values from patent US20040127492A1 (Pharmacia Corporation, priority 2002, published 2004).
Where two headings read alike, the source gives them in different places. Each block holds one compound with its values, some of them ahead of it.

Key:
MK-3 = MK-3 (Homo sapiens, UniProt Q16644); assay: MK-3 inhibition IC50 (similar method to MK-2, with appropriate modifications); format: biochemical; settings: read-out: MK-3 Avg. IC50
MAPKAPK2 (MK-2) = MAPKAPK2 (MK-2) (Homo sapiens, UniProt P49137); assay: Determination of MK-2 IC50 (HSP-peptide phosphorylation, anion exchange resin capture assay); format: biochemical
Summary of the method: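 Radiometric peptide assay: 15 nM p38α-activated MK-2, HSP-peptide, 0.03 mM ATP with [γ33P]ATP, 2% DMSO, pH 7.5, 30° C for 30 min; unreacted ATP removed on AG 1×8 resin before counting. Six concentrations in ten-fold steps, each in triplicate, gave IC50 in μM.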

[1] = Table 1, phenoxypyrazole MK-2 inhibitors
[2] = Table 1, phenoxypyrazole MK-2 inhibitors, read-out: MK-2 Avg, IC50
[3] = Table 2, pyrazolylpyrazole MK-2 inhibitors
[4] = Table 2, pyrazolylpyrazole MK-2 inhibitors, read-out: MK-2 Avg. IC50
[5] = Table 5, other cyclic pyrazole MK-2 inhibiting compounds
[6] = Table 5, other cyclic pyrazole MK-2 inhibiting compounds, read-out: MK-2 Avg. IC50

Chain of MAPKAPK2 (MK-2) (P49137 whole entry, species assumed): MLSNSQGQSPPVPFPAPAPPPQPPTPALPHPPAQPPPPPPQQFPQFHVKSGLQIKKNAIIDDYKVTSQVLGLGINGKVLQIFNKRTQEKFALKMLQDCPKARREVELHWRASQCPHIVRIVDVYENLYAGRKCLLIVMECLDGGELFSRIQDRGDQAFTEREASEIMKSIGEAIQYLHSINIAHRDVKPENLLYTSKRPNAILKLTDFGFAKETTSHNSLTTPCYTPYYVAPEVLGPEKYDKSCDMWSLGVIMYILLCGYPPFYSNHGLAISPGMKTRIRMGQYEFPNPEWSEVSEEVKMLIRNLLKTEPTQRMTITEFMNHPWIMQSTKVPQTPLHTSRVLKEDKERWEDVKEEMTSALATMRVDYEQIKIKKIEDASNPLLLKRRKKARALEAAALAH
Chain of MK-3 (Q16644 whole entry, species assumed): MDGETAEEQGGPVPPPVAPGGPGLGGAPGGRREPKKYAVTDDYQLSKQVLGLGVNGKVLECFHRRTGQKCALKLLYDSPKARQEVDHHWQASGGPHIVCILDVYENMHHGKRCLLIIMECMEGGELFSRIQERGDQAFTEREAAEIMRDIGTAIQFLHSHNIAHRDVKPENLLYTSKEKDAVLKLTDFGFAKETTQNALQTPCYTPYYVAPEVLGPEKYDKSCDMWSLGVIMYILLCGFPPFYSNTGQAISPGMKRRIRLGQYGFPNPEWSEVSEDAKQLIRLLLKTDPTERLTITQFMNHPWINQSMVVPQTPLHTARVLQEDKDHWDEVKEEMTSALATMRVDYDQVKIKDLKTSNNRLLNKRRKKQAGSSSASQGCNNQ

SMILES: NCCCn1nc2c(c1C(=O)O)CCc1cc(O)c(N)cc1-2 [Example 27]
IC50 (MK-3; [1]): > 200 µM | IC50 (MAPKAPK2 (MK-2); [2]): 26.8 µM

SMILES: NC(=O)c1nn(CCO)c2c1CCc1[nH]ncc1-2 [Example 23]
IC50 (MK-3; [3]): ≥ 200 µM | IC50 (MAPKAPK2 (MK-2); [4]): 72.2 µM

SMILES: CCOC(=O)c1c2c(nn1CCCNCCc1ccc(Br)cc1)-c1cn[nH]c1CC2 [Example 9]
IC50 (MK-3; [3]): 68.1 µM | IC50 (MAPKAPK2 (MK-2); [4]): 8.54 µM

SMILES: Cn1nc2c(c1C(N)=O)CCc1cc(O)ccc1-2 [Example 71]
IC50 (MK-3; [1]): > 200 µM | IC50 (MAPKAPK2 (MK-2); [2]): 179 µM

SMILES: O=C(O)c1c2c(nn1CCCNCCc1ccc(Cl)c(Cl)c1)-c1ccncc1CC2 [Example 34]
IC50 (MK-3): 10.3 µM | IC50 (MAPKAPK2 (MK-2); read-out: MK-2 Avg. IC50): 0.201 µM

SMILES: NCCn1nc2c(c1C(=O)O)CCc1cnc(/C=C/c3ccccc3)cc1-2 [Example 37]
IC50 (MK-3; [5]): 1.21 µM | IC50 (MAPKAPK2 (MK-2); [6]): 0.0413 µM

SMILES: O=C(O)c1c2c(nn1CCCNCCc1ccc(-c3ccccc3Cl)cc1)-c1ccncc1CC2 [Example 32]
IC50 (MK-3): 9.61 µM | IC50 (MAPKAPK2 (MK-2); read-out: MK-2 Avg. IC50): 0.185 µM

SMILES: COc1cc2c(cc1-c1cccc(C#N)c1)-c1nn(CCCNC(=O)OC(C)(C)C)c(C(=O)O)c1CC2 [Example 38]
IC50 (MK-3; [1]): > 200 µM | IC50 (MAPKAPK2 (MK-2); [2]): 56.2 µM

SMILES: O=C1NCCn2nc3c(c21)CCc1cnc(/C=C/c2ccc(F)c(F)c2)cc1-3 [Example 7]
IC50 (MK-3; [5]): > 20 µM | IC50 (MAPKAPK2 (MK-2); [6]): 0.623 µM

SMILES: COc1cc2c(cc1OC)-c1c(c(C(N)=O)nn1-c1ccc(S(N)(=O)=O)cc1)CC2 [Example 175]
IC50 (MK-3; [1]): > 200 µM | IC50 (MAPKAPK2 (MK-2); [2]): > 200 µM

SMILES: COc1cc2c(cc1-c1ccccc1Cl)-c1nn(CCCNC(=O)OC(C)(C)C)c(C(=O)O)c1CC2 [Example 52]
IC50 (MK-3; [1]): > 200 µM | IC50 (MAPKAPK2 (MK-2); [2]): 109 µM

SMILES: N#Cc1cccc(-c2cc3c(cc2O)CCc2c-3nn(CCCN)c2C(=O)O)c1 [Example 10]
IC50 (MK-3; [1]): 168 µM | IC50 (MAPKAPK2 (MK-2); [2]): 5.35 µM

SMILES: CSc1n[nH]c2c1-c1nn3c(c1CC2)C(=O)NCCC3 [Example 11]
IC50 (MK-3; [3]): ≥ 200 µM | IC50 (MAPKAPK2 (MK-2); [4]): 10.5 µM

SMILES: CCOC(=O)c1c2c(nn1CCCN)-c1c(SC)n[nH]c1CC2 [Example 20]
IC50 (MK-3; [3]): ≥ 200 µM | IC50 (MAPKAPK2 (MK-2); [4]): 55.3 µM

SMILES: O=C(O)c1nn(C2CCN(C(=O)OCc3ccccc3)CC2)c2c1CCc1c-2cnn1C(c1ccccc1)(c1ccccc1)c1ccccc1 [Example 19]
IC50 (MK-3; [3]): ≥ 200 µM | IC50 (MAPKAPK2 (MK-2); [4]): 46.5 µM

SMILES: O=C1NCCn2nc3c(c21)CCc1cnc(N2Cc4ccccc4C2)cc1-3 [Example 157]
IC50 (MK-3): 45.4 µM | IC50 (MAPKAPK2 (MK-2); read-out: MK-2 Avg. IC50): 9.58 µM

SMILES: O=C1NCCCn2nc3c(c21)CCc1cc(O)c(-c2cccc([N+](=O)[O-])c2)cc1-3 [Example 3]
IC50 (MK-3; [1]): > 200 µM | IC50 (MAPKAPK2 (MK-2); [2]): 1.48 µM

SMILES: CCN(CC)CCNC(=O)c1nn(-c2ccc(Cl)cc2)c2c1CCc1cc(OC)ccc1-2 [Example 171]
IC50 (MK-3; [1]): > 200 µM | IC50 (MAPKAPK2 (MK-2); [2]): > 200 µM

SMILES: O=C(O)c1nn(CC(F)(F)F)c2c1CCc1c-2cnn1C(c1ccccc1)(c1ccccc1)c1ccccc1 [Example 22]
IC50 (MK-3; [3]): 195 µM | IC50 (MAPKAPK2 (MK-2); [4]): 68.3 µM

Results, then the compound that gave them:

IC50 (MK-3): 16.1 µM | IC50 (MAPKAPK2 (MK-2); read-out: MK-2 Avg. IC50): 0.245 µM
SMILES: CC(C)c1cccc(-c2ccc(CCNCCCn3nc4c(c3C(=O)O)CCc3cnccc3-4)cc2)c1 [Example 40]

IC50 (MK-3; [1]): 115 µM | IC50 (MAPKAPK2 (MK-2); [2]): 0.823 µM
SMILES: NCCCn1nc2c(c1C(=O)O)CCc1cc(O)c(-c3cccc([N+](=O)[O-])c3)cc1-2 [Example 1]

IC50 (MK-3; [1]): > 200 µM | IC50 (MAPKAPK2 (MK-2); [2]): > 200 µM
SMILES: CCOC(=O)c1nn(-c2ccccc2)c2c1CCc1cc(OC)c(OC)cc1-2 [Example 168]

IC50 (MK-3): 0.875 µM | IC50 (MAPKAPK2 (MK-2); read-out: MK-2 Avg. IC50): 0.0558 µM
SMILES: COc1cccc(-c2cc3c(cn2)CCc2c-3nn(CCCN)c2C(=O)O)c1 [Example 14]

IC50 (MK-3): 45.8 µM | IC50 (MAPKAPK2 (MK-2); read-out: MK-2 Avg. IC50): 0.427 µM
SMILES: NCC1Cn2nc3c(c2C(=O)N1)CCc1cnccc1-3 (centres unmarked) [Example 49]

IC50 (MK-3): 0.142 µM | IC50 (MAPKAPK2 (MK-2); read-out: MK-2 Avg. IC50): 0.018 µM
SMILES: NCCCn1nc2c(c1C(=O)O)CCc1cnc(-c3cccc([N+](=O)[O-])c3)cc1-2 [Example 2]

IC50 (MK-3): 0.29 µM | IC50 (MAPKAPK2 (MK-2); read-out: MK-2 Avg. IC50): 0.0433 µM
SMILES: NCCCn1nc2c(c1C(=O)O)CCc1cnc(-c3cccc(C(F)(F)F)c3)cc1-2 [Example 12]

IC50 (MK-3; [3]): 124 µM | IC50 (MAPKAPK2 (MK-2); [4]): ≥ 200 µM
SMILES: CCOC(=O)c1nn(CC(F)(F)F)c2c1CCc1[nH]ncc1-2 [Example 80]

IC50 (MK-3; [3]): ≥ 200 µM | IC50 (MAPKAPK2 (MK-2); [4]): 150 µM
SMILES: O=C(O)c1c2c(nn1CC(F)(F)F)-c1cn[nH]c1CC2 [Example 41]
